# Values quoted from earlier work as cited in US20260285919A1, “RECOMBINANT PEPTIDES AND COMPOSITIONS THEREOF FOR PAIN MANAGEMENT” (UNIVERSITY OF ROCHESTER, priority 2023, published 2026).
# What was measured:
# [1] = system: mice; conditions: for pain responses in injected paws: injected into the paws of mice
# [2] = system: human ASIC1b; conditions: human ASIC1b protein, as opposed to rodent ASIC1b
Substance,pain responses in injected paws [1],effect on the activity of human ASIC1b [2],"analgesic effect in mice where ASIC1a is genetically deleted ([1]; ASIC1a genetically deleted mice, ASIC1b present)"
"PcTx1 (EDCIPKWKGCVNRHGDCCEGLECWKRRRSFEVCVPKTPKT; UniProt P60514 1-40, looked up)",this effect is not seen,,
mambalgin,much less sensitive,increases the activity of human ASIC1b,still works
